ChEMBL document CHEMBL2385067, “Preparation of S14161 and its analogues and the discovery of 6-bromo-8-ethoxy-3-nitro-2H-chromene as a more potent antitumor agent in vitro” (2013)
The source made the active and inactive calls. The calls are words filed in the database; no cut-off is given here.

Legend:
LP-1 = assay: Cytotoxicity against human LP-1 cells after 24 to 72 hrs by SRB assay; assay type: functional
K562 = assay: Cytotoxicity against human K562 cells after 24 to 72 hrs by SRB assay; assay type: functional
SK-OV-3 [1] = assay: Inhibition of PI3K in human SKOV3 cells assessed as inhibition of EGF1-induced AKT protein level up to 20 uM after 24 hrs by Western blot analysis; assay type: cell-based
A549 [2] = assay: Inhibition of PI3K in human A549 cells assessed as inhibition of EGF1-induced AKT protein level up to 20 uM after 24 hrs by Western blot analysis; assay type: cell-based
H47D [3] = assay: Inhibition of PI3K in human H47D cells assessed as inhibition of EGF1-induced AKT phosphorylation up to 20 uM after 24 hrs by Western blot analysis; assay type: cell-based
HeLa [4] = assay: Inhibition of PI3K in human HeLa cells assessed as inhibition of EGF1-induced AKT phosphorylation up to 20 uM after 24 hrs by Western blot analysis; assay type: cell-based
SK-OV-3 [5] = assay: Inhibition of PI3K in human SKOV3 cells assessed as inhibition of EGF1-induced AKT phosphorylation up to 20 uM after 24 hrs by Western blot analysis; assay type: cell-based
HUVEC = assay: Antiangiogenic activity in HUVEC assessed as inhibition of cell migration by measuring area of wounded gap at 5 uM after 8 to 24 hrs by wound healing assay; assay type: functional, Homo sapiens; parameters: scale not given: the % may be the effect or the level left
A549 [6] = assay: Induction of apoptosis in human A549 cells assessed as activation of caspase-3 at 5 uM; assay type: functional, cell-based
A549 [7] = assay: Inhibition of PI3K in human A549 cells assessed as inhibition of EGF1-induced AKT phosphorylation up to 20 uM after 24 hrs by Western blot analysis; assay type: cell-based
HeLa [8] = assay: Growth inhibition of human HeLa cells at 20 uM after 24 hrs by SRB assay; assay type: functional
HeLa [9] = assay: Growth inhibition of human HeLa cells at 5 uM after 24 hrs by SRB assay; assay type: functional, cell-based
A549 [10] = assay: Growth inhibition of human A549 cells at 5 to 20 uM after 24 hrs by SRB assay; assay type: functional, cell-based
HeLa [11] = assay: Growth inhibition of human HeLa cells after 24 hrs by SRB assay; assay type: functional, cell-based
SPCA1 = assay: Growth inhibition of human SPCA1 cells at 20 uM after 72 hrs by SRB assay; assay type: functional, cell-based
NCI-H460 = assay: Growth inhibition of human H460 cells at 20 uM after 72 hrs by SRB assay; assay type: functional, cell-based
HeLa [12] = assay: Growth inhibition of human HeLa cells at 20 uM after 72 hrs by SRB assay; assay type: functional, cell-based
A549 [13] = assay: Growth inhibition of human A549 cells at 20 uM after 72 hrs by SRB assay; assay type: functional, cell-based
H47D [14] = assay: Growth inhibition of human H47D cells at 20 uM after 72 hrs by SRB assay; assay type: functional, cell-based
SK-OV-3 [15] = assay: Growth inhibition of human SKOV3 cells at 20 uM after 72 hrs by SRB assay; assay type: functional, cell-based
PC-3 = assay: Growth inhibition of human PC3 cells at 20 uM after 72 hrs by SRB assay; assay type: functional, cell-based
[16] = Cytotoxicity against human U87 cells after 24 to 72 hrs by SRB assay; assay type: functional, U-87MG ATCC; settings: U-87 MG
B16 = assay: Cytotoxicity against mouse B16 cells after 24 to 72 hrs by SRB assay; assay type: functional
MDA-MB-231 = assay: Cytotoxicity against human MDA-MB-231 cells after 24 to 72 hrs by SRB assay; assay type: functional
A549 [17] = assay: Induction of apoptosis in human A549 cells assessed as activation of caspase-3 at 10 uM; assay type: functional, cell-based
H47D [18] = assay: Inhibition of PI3K in human H47D cells assessed as inhibition of EGF1-induced AKT protein level up to 20 uM after 24 hrs by Western blot analysis; assay type: cell-based
HeLa [19] = assay: Inhibition of PI3K in human HeLa cells assessed as inhibition of EGF1-induced AKT protein level up to 20 uM after 24 hrs by Western blot analysis; assay type: cell-based

CCOc1cccc2c1OC(c1ccc(OC)cc1)C([N+](=O)[O-])=C2 (centres undefined) gave a GI50 (LP-1) of 3160 nM and a GI50 (K562) of 4860 nM.

For CCOc1cc(Br)cc2c1OCC([N+](=O)[O-])=C2, the inhibition (SK-OV-3 [1]) was “inactive”, the inhibition (A549 [2]) was “inactive” and the inhibition (H47D [3]) was “Active”. For the same compound, the inhibition (HeLa [4]) was “Active”, the inhibition (SK-OV-3 [5]) was “Active” and the Activity (HUVEC) was 20%. The Activity (A549 [6]) was “Active”, the inhibition (A549 [7]) was “Active” and the inhibition of growth at 20 µM (HeLa [8]; read-out: GI) was over 90%. The “growth inhibition (GI)” value (HeLa [9]) was “Active”, the “growth inhibition (GI)” value (A549 [10]) was “Active” and the “growth inhibition (GI)” value (HeLa [11]) was “Dose-dependent effect”. The “growth inhibition (GI)” value (SPCA1) was “Active”, the “growth inhibition (GI)” value (NCI-H460) was “Active” and the “growth inhibition (GI)” value (HeLa [12]) was “Active”. The “growth inhibition (GI)” value (A549 [13]) was “Active”, the “growth inhibition (GI)” value (H47D [14]) was “Active” and the “growth inhibition (GI)” value (SK-OV-3 [15]) was “Active”. The “growth inhibition (GI)” value (PC-3) was “Active”, the GI50 [16] was 12.6 µM and the GI50 (B16) was 20.4 µM. The GI50 (MDA-MB-231) was 2.03 µM, the GI50 (LP-1) was 330 nM and the GI50 (K562) was 920 nM. For the same compound, the Activity (A549 [17]) was “Active”, the inhibition (H47D [18]) was “inactive” and the inhibition (HeLa [19]) was “inactive”.

For CCOc1cccc2c1OC(c1ccc(F)cc1)C([N+](=O)[O-])=C2 (centres undefined), the inhibition (HeLa [4]) was “Active”, the inhibition (SK-OV-3 [5]) was “Active” and the Activity (HUVEC) was under 50%. The “growth inhibition (GI)” value (HeLa [8]) was “Active”, the “growth inhibition (GI)” value (HeLa [9]) was “Active” and the “growth inhibition (GI)” value (A549 [10]) was “Active”. For the same compound, the “growth inhibition (GI)” value (SPCA1) was “Active”, the “growth inhibition (GI)” value (NCI-H460) was “Active” and the “growth inhibition (GI)” value (HeLa [12]) was “Active”. For the same compound, the “growth inhibition (GI)” value (A549 [13]) was “Active”, the “growth inhibition (GI)” value (H47D [14]) was “Active” and the “growth inhibition (GI)” value (SK-OV-3 [15]) was “Active”. The “growth inhibition (GI)” value (PC-3) was “Active”, the GI50 [16] was 18.7 µM and the GI50 (B16) was 23.3 µM. For the same compound, the GI50 (MDA-MB-231) was 8.53 µM, the GI50 (LP-1) was 570 nM and the GI50 (K562) was 1240 nM. The Activity (A549 [17]) was “Active”.

Work on CCOc1cccc2c1OC(c1ccccc1)C([N+](=O)[O-])=C2 (centres undefined) yielded a GI50 (LP-1) of 960 nM and a GI50 (K562) of 1180 nM.

For CCOc1cccc2c1OCC([N+](=O)[O-])=C2, the GI50 (LP-1) was 640 nM and the GI50 (K562) was 1680 nM.

CCOc1cccc2c1OC(c1ccc(C#N)cc1)C([N+](=O)[O-])=C2 (centres undefined) showed a GI50 (LP-1) of 440 nM and a GI50 (K562) of 1020 nM.
